Results reported in patent US7375168B2, “Protein compatible methods and compounds for controlling the morphology and shrinkage of silica derived from polyol-modified silanes” (McMaster University, priority 2002, dated 2008).
Like-named read-outs stand apart in the source and are kept apart here. Ends that are not written are not given here.

Key:
[1] = target: T1, Src kinase, human recombinant (Homo sapiens, UniProt P12931); assay: Src PTK inhibition, free and entrapped in GLTES/DGS silica, TR-FRET detection of peptide phosphorylation; format: biochemical; conditions: substrate P1716, ATP as in FIG. 29
T1 construct: purchased Sigma-Aldrich (Oakville, ON) S5439; host or cells: insect cells

[2] = target: T2, dihydrofolate reductase (DHFR) (Escherichia coli, UniProt P0ABQ4); format: binding, E. coli; conditions: for elution time: 20 nM compounds, 100 nM fluorescein, 2 mM ammonium acetate; for elution / retention time: column with 50 pmol DHFR initial loading (FIG. 19 Panel B), compounds infused at 20 nM, fluorescein 100 nM
T2 construct: made in house

[3] = Src entrapped in GLTES/DGS derived silica, read-out: IC50 Entrapped in Silica
[4] = free Src in solution, read-out: IC50 Solution
[5] = FIG. 22 Panel A, column cut from one continuously filled capillary
[6] = FIG. 22 Panel B, second column from the same capillary

Molecule: YIYGSFK [YIYGSFK]
- IC50 [1, 3]: 1000 to 1400 µM
- IC50 [1, 4]: 800 to 1200 µM

Molecule: O=c1ccc2ccccc2o1 [coumarin]
- elution time [2, 5]: 2.7 min
- elution time [2, 6]: 2.6 min
- elution / retention time [2]: 2 min

Molecule: Nc1nc2ncc(CNc3ccc(C(=O)N[C@@H](CCC(=O)O)C(=O)O)cc3)nc2c(=O)[nH]1 [folic acid]
- elution time [2, 5]: 8.9 min
- elution time [2, 6]: 8.4 min
- elution / retention time [2]: 7 min

Molecule: COc1cc2ncnc(Nc3ccc(Oc4ccccc4)cc3)c2cc1OC [Src Kinase Inhibitor I, 4-(4-phenoxyanilino)-6,7-dimethoxyquinazoline]
- IC50 [1, 3]: 0.6 to 0.8 µM
- IC50 [1, 4]: 0.5 to 0.7 µM
